From patent US7956219B2, “Amino acid analogues” (Baker IDI Heart and Diabetes, priority 2002, dated 2011)

How the values were obtained:
rat aorta = assay: Isolated aortic ring assay: acetyl choline-induced vascular relaxation; details: rat aorta sections; compound at 10^−8M
Experimental: FIG. 3 illustrates the augmentation of vascular relaxation produced by increasing concentrations of acetyl choline in the absence of and presence of test compounds. C indicates control.
Initially four compounds were tested for their effect on vascular tone, using an isolated aortic ring assay. In this assay, sections of rat aorta are mounted in an organ bath, and tension is determined continuously using a strain gauge, as described by Furchgott & Zawadski (1980). The effect of test compounds on the vasorelaxant effect of the endothelial-dependent vasodilator acetyl choline (ACh) was examined. […] It will be appreciated that similar experiments may be performed using sections of human aorta, coronary artery or peripheral artery obtained at surgery.

HeLa cells = assay: Radiolabelled L-arginine uptake into HeLa cells; format: cell-based
Experimental: C: Control performed in the absence of test compound. […] Panel A: Compound A4; Panel B: Compound A7; Panel C: G10; Panel D: Compound H4.
In parallel with this assay, the capacity for these compounds to alter arginine entry into cells was assessed. Initial studies were conducted in HeLa cells. Arginine entry was determined by the rate of entry of radiolabelled L-arginine into the cells, using the method of Kaye et al., (2000). Of the total library, four compounds were identified which had inhibitory activity at a Ki of 100 μM. These compounds were as follows:
In the light of the foregoing discussion, we propose that this effect may be associated with therapeutic benefit.

EA.hy.926 = assay: Arginine uptake by endothelial cell line EA.hy.926; format: cell-based; details: Homo sapiens, read-out: Arg uptake (% control) from FIG. 4; for activity at 0.1 µM: compound at 10^-7 M (bottom value); for activity at 0.01 µM: compound at 10^-8 M (top value)
Source text: Further studies have been performed to characterize the effects of compounds from library M0006 on arginine transport in endothelial cells. Studies performed in the endothelial cell line EA.hy.926 (Harrison-Shostak et al, 1997) have identified a number of compounds which exert a stimulatory effect on L-arginine transport. This cell line is considered to be more physiologically relevant than HeLa cells to the target conditions, and in fact was more sensitive. Table 16 summarises results for the compounds so far identified which have the highest activity in the arginine transport assay.

SMILES | augmentation of acetyl choline-induced vascular relaxation (rat aorta) | effect on L-arginine transport at low concentration (HeLa cells; HeLa cells, low concentration (10^−7 and 10^−8 M)) | effect on L-arginine transport at high concentration (HeLa cells; high concentration) | activity at 0.1 µM (EA.hy.926) | activity at 0.01 µM (EA.hy.926)
N=C(NCc1cc(C(F)(F)F)cc(C(F)(F)F)c1)Nc1ccc(C(N)=O)cc1OCC1CCC1 [Compound A4] | significant augmentation |  |  |  | 
N=C(NCc1cc(C(F)(F)F)cc(C(F)(F)F)c1)Nc1ccc(C(N)=O)cc1OCC1CCCCC1 [Compound G10, 3-Cyclohexylmelhoxy-4-[N′-(3,5-trifluoromethyl-benzyl)-guanidino]-benzamide] |  | enhance L-arginine transport at low concentration | inhibit such transport at high concentration |  | 
N=C(NCc1ccc(Cl)c(Cl)c1)Nc1ccc(C(N)=O)cc1OCC1CCCCC1 [Compound H4, 3-Cyclohexylmethoxy-4-[N′-(3,4-dichloro-benzyl)-guanidino]-benzamide] | significant augmentation |  |  |  | 
N=C(NCc1cc(C(F)(F)F)cc(C(F)(F)F)c1)Nc1ccc(C(N)=O)cc1OCC1CCC1 [M0006 01 A04] |  |  |  | 108% | 103%
N=C(NCc1ccc(Cl)c(Cl)c1)Nc1ccc(C(N)=O)cc1OCC1CCC1 [M0006 01 A07, 3-Cyclobutylmethoxy-4-[N′-(3,4-dichloro-benzyl)-guanidino]-benzamide] |  |  |  | 66% | 87%
N=C(NCc1ccccc1F)Nc1ccc(C(N)=O)cc1OCC1CCC1 [M0006 01 A11, 3-Cyclobutylmethoxy-4-[N′-(2-fluoro-benzyl)-guanidino]-benzamide] |  |  |  | 128% | 159%
Cc1ccc(CNC(=N)Nc2ccc(C(N)=O)cc2OCC2CCC2)cc1 [M0006 01 A12, 3-Cyclobutylmethoxy-4-[N′-(4-methyl-benzyl)-guanidino]-benzamide] |  |  |  | 160% | 179%
COc1ccccc1CNC(=N)Nc1ccc(C(N)=O)cc1OCC1CCC1 [M0006 01 B04, 3-Cyclobutylmethoxy-4-[N′-(2-methoxy-benzyl)-guanidino]-benzamide] |  |  |  | 122% | 130%
N=C(Nc1ccc(C(N)=O)cc1OCC1CCC1)NC1CCCCC1 [M0006 01 B12, 3-Cyclobutylmethoxy-4-(N′-cyclohexyl-guanidino)-benzamide] |  |  |  | 134% | 161%
CC(CNC(=N)Nc1ccc(C(N)=O)cc1OCC1CC1)c1ccccc1 (centres unmarked) [M0006 01 C12, 3-Cyclopropylmethoxy-4-[N′-(2-phenyl-propyl)-guanidino]-benzamide] |  |  |  | 133% | 116%
CC(CNC(=N)Nc1ccc(C(N)=O)cc1OCC1CCCCO1)c1ccccc1 (centres unmarked) [M0006 01 F05, 4-[N′-(2-Phenyl-propyl)-guanidino)-3-(tetrahydro-pyran-2-ylmethoxy)-benzamide] |  |  |  | 130% | 135%
N=C(NCc1ccccc1)Nc1ccc(C(N)=O)cc1OCC1CCCCO1 (centres unmarked) [M0006 01 F09, 4-(N′-Benzyl-guanidino)-3-(tetrahydro-pyran-2-ylmethoxy)-benzamide] |  |  |  | 110% | 140%
N=C(NCc1ccc2c(c1)OCO2)Nc1ccc(C(N)=O)cc1OCC1CCCCO1 (centres unmarked) [M0006 01 F10, 4-(N′-Benzo[1,3]dioxol-5-ylmethyl-guanidino)-3-(tetrahydro-pyran-2-ylmethoxy)-benzamide] |  |  |  | 131% | 119%
CC(C)CNC(=N)Nc1ccc(C(N)=O)cc1OCC1CCCCO1 (centres unmarked) [M0006 01 F12, 4-(N′-Isobutyl-guanidino)-3-(tetrahydro-pyran-2-ylmethoxy)-benzamide] |  |  |  | 146% | 103%
N=C(NCc1cc(C(F)(F)F)cc(C(F)(F)F)c1)Nc1ccc(C(N)=O)cc1OCC1CCCCC1 [M0006 01 G10] |  |  |  | 188% | 125%
N=C(NCc1ccc(Cl)c(Cl)c1)Nc1ccc(C(N)=O)cc1OCC1CCCCC1 [M0006 01 H04, 3-Cyclohexylmethoxy-4-[N′-(3,4-dichloro-benzyl)-guanidino]-benzamide] |  |  |  | 92% | 99%
COc1ccccc1CNC(=N)Nc1ccc(C(N)=O)cc1OCC1CCCCC1 [M0006 01 H10, 3-Cyclohexylmethoxy-4-[N′-(2-methoxy-benzyl)-guanidino]-benzamide] |  |  |  | 146% | 153%
N=C(NCc1ccccc1)Nc1ccc(C(N)=O)cc1OCC1CCCCC1 [M0006 01 H11, 4-(N′-Benzyl-guanidino)-3-cyclohexylmethoxy-benzamide] |  |  |  | 190% | 131%
N=C(NCC1CCCCC1)Nc1ccc(C(N)=O)cc1OCC1CCCCC1 [M0006 02 A10, 3-Cyclohexylmethoxy-4-(N′-cyclohexylmethyl-guanidino)-benzamide] |  |  |  | 127% | 123%
N=C(NCNc1ccc([N+](=O)[O-])cn1)Nc1ccc(C(N)=O)cc1OCc1ccccc1 [M0006 02 D06, 3-Benzyloxy-4-{N′-[(5-nitro-pyridin-2-ylamino)-methyl]-guanidino}-benzamide] |  |  |  | 138% | 176%
N=C(NCc1ccccc1)Nc1ccc(C(N)=O)cc1OCc1ccccc1 [M0006 02 E06, 4-(N′-Benzyl-guanidino)-3-benzyloxy-benzamide] |  |  |  | 160% | 167%
N=C(NCc1ccco1)Nc1ccc(C(N)=O)cc1OCc1ccccc1 [M0006 02 F06, 3-Benzyloxy-4-(N′-furan-2-ylmethyl-guanidino)-benzamide] |  |  |  | 126% | 158%
Cc1cccc(COc2cc(C(N)=O)ccc2NC(=N)NCc2ccco2)c1 [M0006 02 H08, 4-(N′-Furan-2-ylmethyl-guanidino)-3-(3-methyl-benzyloxy)-benzamide] |  |  |  | 182% | 108%
